The text below walks through data of patent publication US20110059953A1, “COMPOUNDS FOR USE IN STABILIZING P53 MUTANTS” (priority 2008, published 2011).

In assay [1] the target is T1, T-p53C-Y220C (Homo sapiens, UniProt P04637, M133L/N239Y/N268D/V203A/Y220C).
T1 construct: For all other experiments, the DNA coding for residues 94-312 of T-p53C was inserted into a modified pET24a(+) vector; 6xHis tag + B. stearothermophilus dihydrolipoyl acetyltransferase lipoyl domain (aa 1-85) + TEV site (N, cleaved yes); made in house; host or cells: Escherichia coli BL21 (DE3) or C41 (DE3)
Briefly: Thermal denaturation using capillary DSC. Format: binding. The conditions noted are these: for ΔTm: increase in Tm on adding 250 μM of the test compound, 20 μM protein. As to the method: Differential Scanning calorimetry (DSC) was used to probe the stabilising effect of the ligands on […]. For a reversible two-state system, the melting temperature, Tm, is the transition temperature where the folded and unfolded states are equally populated.
DSC experiments were performed using a Microcal VP-Capillary DSC instrument (Microcal, Amherst, Mass.) with an active cell volume of ˜125 μl. Protein samples were buffer exchanged into 25 mM NaPi, pH 7.2, 150 mM NaCl, 5 mM DTT. This buffer + the respective concentration of ligand/DMSO was used for baseline scans, so that the only difference between sample and reference cell or sample cell in the measurement and both cells in the baseline scan is the presence of the protein. A final concentration of 20 μM T-p53C-Y220C was used. A pressure of 2.5 bars (nitrogen) was applied to the cell. Temperatures from 10 to 85° C. were scanned at a rate of 250° C./h, with a filtering period of 4 seconds and feedback gain/mode set at medium. Data were analysed with ORIGIN software (Microcal).
The following tables show the results of the thermal denaturation studies using capillary DSC, where ΔTm is the increase in Tm on adding 250 μM of the test compound. The Dunnett significance test (P) value given is the calculated probability that the change in Tm is insignificant.

The target of assay [2] is T1, T-p53C-Y220C. Briefly: 1H/15N-HSQC NMR chemical shift binding (KD NMR). As for the experimental part: Uniformly ^15N-labelled core domains of T-p53C-Y220C was expressed and purified according to the above described protocol. The low molecular-weight compounds were dissolved in d^6-DMSO to make 10 mM stock solutions. To screen compound mixtures by chemical shift mapping, 10 μl of each of 4 different compounds were mixed together and 25 μl of this mixture was added to 25 μl of D2O and 500 μl of 70 μM T-p53C-Y220C (in 25 mM NaPi, 150 mM NaCl and 5 mM DTT, pH 7.2 ). […] NMR samples were freshly prepared and kept sealed under argon after degassing by repeated cycles of pumping the NMR tube under low pressure (while gently tapping the tube) and returning to atmospheric pressure using a stream of argon gas. This was done to maintain sample stability.
Using Bruker's TopSpin 2.0 software, the number of complex points in t1 was doubled by forward complex linear prediction and shifted squared sine bell window functions were applied to both dimensions prior to zero filling and Fourier transformation. A digital resolution of 2.0 Hz/point in the ^1H frequency dimension and 4.7 Hz/point in the ^15N frequency dimension was used. […] An in-house script was used to analyse chemical shift differences and map these onto PDB protein structures.
For certain compounds an array of different concentrations were used to derive KD values (KD NMR) by fitting a saturation binding equation (Δδ=c+a*[L]/(KD+[L])) to the concentration-dependent chemical shift changes of the relevant shifting peaks.

Assay [3] addresses T1, T-p53C-Y220C. Briefly: Thermal denaturation using fluorescence (Sypro Orange). It is filed as binding. Conditions: 10 μM protein. As for the experimental part: This was by an adaption of the classical procedure (e.g. ref A6). Thermal unfolding was monitored by the binding of the dye Sypro Orange (5×) using a Rotor-gene 6000 (Corbett Life Science) at 270 K/h in 25 mM NaPi, 150 mM NaCl and 5 mM DTT, pH 7.2 with a protein concentration of 10 μM.
(§1) Where listed, S.E. is the calculated standard error.
as §1

Assay [4] addresses T1, T-p53C-Y220C. Briefly: Equilibrium sedimentation analytical ultracentrifugation (AUC) binding. The text has this: Analytical centrifugation studies the distribution of molecules under gravity force. In equilibrium sedimentation experiment the solute concentrates at the bottom of the cell and forms a concentration gradient. The steepness of this gradient depends on the molecular weight of the solute, the heavier the molecule the steeper the gradient. Small molecules have a molecular weight around 500 Da, and p53 core domain is large protein molecule of 24.5 kDa. Under the experimental conditions chosen, small molecules form a very shallow, practically negligible gradient, while p53 presents a very well defined sedimentation profile. […] By monitoring the distribution of the small molecule via absorbance at wavelengths above 300 nm (the ligands must absorb light in this spectral range for the method to work) so that signal is not affected by the absorbance of the protein (e.g., 310, 340 and 380 nm), it is possible to determine if the small molecule binds to the protein, and in many cases measure the dissociation constant. […]
Equilibrium sedimentation experiments were performed on a Beckman XL-I ultracentrifuge using Ti-50 rotor and 6-sector cells. at speeds of 30,000 and 40,000 rpm at 10° C. Up to 21 samples were analysed simultaneously. […] The samples contained ligand at concentration of 15 μM-40 μM, with absorbance of 0.3-0.5 at one of the selected wavelengths and 100 μM T-p53-Y220C.

Assay [5] has as its target T1, T-p53C-Y220C. Briefly: Melting temperature of T-p53C-Y220C, method not stated. It is filed as binding.
The mark [6] stands for this setting: KD (@ 20° C.) μM, further NMR studies, some revised values.
Setting [7] is: further studies on compounds described above.

On to `CCC(CO)NCc1ccc2c(c1)c1ccccc1n2CC` (stereo not drawn) [PK209], for which the ΔTm at T-p53C-Y220C [1] came out at 0.79 °C. In addition, on T-p53C-Y220C [2] (setting [6]), the Kd amounted to 97 µM. For the same compound, on T-p53C-Y220C [3] (setting [7]), the “ΔTm (° C.)” value was determined as 0.793 °C.
On the same counts, the results for `CCn1c2ccccc2c2cc(CNCCN(C)C)ccc21` [PK207] are 0.57 °C, 200 µM and 0.57 °C.
Consider `CCn1c2ccccc2c2cc(CNCCCn3ccnc3)ccc21` [PK214], for which the Kd on T-p53C-Y220C [2] (setting [6]) is 76 µM. The “ΔTm (° C.)” value on T-p53C-Y220C [3] (further compounds) came out at 0.9 °C.
Turning to `CCn1c2ccccc2c2cc(CNCCO)ccc21` [PK211], on T-p53C-Y220C [1], the ΔTm came out at 0.58 °C. On T-p53C-Y220C [2] (setting [6]), the Kd was determined as 120 µM. Further, at T-p53C-Y220C [3] (setting [7]), the “ΔTm (° C.)” value was 0.58 °C.
Take `CCn1c2ccccc2c2cc(CNC)ccc21` [PK083]: the equilibrium dissociation constant (Kd) on T-p53C-Y220C [4] was 170 µM; at T-p53C-Y220C [1] (at 316-318 K, read-out: approximate KD from DSC stabilization fit) it was around 140 µM; at T-p53C-Y220C [2] (setting [6]), 114 µM; on T-p53C-Y220C [2] (KD (@ 20° C.), 1H/15N-HSQC), 167 µM. Besides, the ΔTm on T-p53C-Y220C [1] was found to be 0.75 °C. Besides, the “ΔTm (° C.)” value at T-p53C-Y220C [3] (setting [7]) was 0.76 °C.
Turning to `NC(=O)c1c[nH]c2ccccc12` [1H-indole-3-carboxamide], the “effect on melting temperature” value at T-p53C-Y220C [5] is on record as “raise its melting temperature”.
With `CCn1c2ccccc2c2cc(C3CC4CN(C)C(=O)C45CCCN35)ccc21` (stereo not drawn) [PK226], the ΔTm at T-p53C-Y220C [1] came out at 1.11 °C. Further, the Kd on T-p53C-Y220C [2] (setting [6]) came to 113 µM. The “ΔTm (° C.)” value at T-p53C-Y220C [3] (setting [7]) was determined as 1.0 °C.
As for `CCn1c2ccccc2c2cc(NC(=O)CSc3nnc(N)s3)ccc21` [PK099], on T-p53C-Y220C [1], the shift in melting temperature (ΔTm) amounted to 0.53 °C. Also, on T-p53C-Y220C [3] (setting [7]), the “ΔTm (° C.)” value is 0.53 °C.
In the case of `CCn1c2ccccc2c2cc(CN(C)C(=O)NC3CCS(=O)(=O)C3)ccc21` (stereo not drawn) [PK148], the ΔTm at T-p53C-Y220C [1] worked out at 0.23 °C. For the same compound, at T-p53C-Y220C [3] (setting [7]), the “ΔTm (° C.)” value is 0.225 °C.
On to `CCn1c2ccccc2c2cc(CN3CCC(N4CCN(CCO)CC4)CC3)ccc21` [PK205], for which the ΔTm on T-p53C-Y220C [1] worked out at 0.4 °C. In addition, the “ΔTm (° C.)” value on T-p53C-Y220C [3] (setting [7]) stood at 0.4 °C.

The ΔTm is the change in melting temperature against a reference sample. As a reminder, the Kd is the free concentration of one partner at which half of the binding sites on the other are occupied at equilibrium, for simple one-to-one binding.
